This assay has as its target GI 77862362; decaprenyl diphosphate synthase [Rhodobacter capsulatus] (Rhodobacter capsulatus, UniProt Q07D00). The assay can be described thus: product chain-length by TLC with […]IPP. In kind it is biochemical.

GI 77862362; decaprenyl diphosphate synthase [Rhodobacter capsulatus], sequence (Q07D00 1-333): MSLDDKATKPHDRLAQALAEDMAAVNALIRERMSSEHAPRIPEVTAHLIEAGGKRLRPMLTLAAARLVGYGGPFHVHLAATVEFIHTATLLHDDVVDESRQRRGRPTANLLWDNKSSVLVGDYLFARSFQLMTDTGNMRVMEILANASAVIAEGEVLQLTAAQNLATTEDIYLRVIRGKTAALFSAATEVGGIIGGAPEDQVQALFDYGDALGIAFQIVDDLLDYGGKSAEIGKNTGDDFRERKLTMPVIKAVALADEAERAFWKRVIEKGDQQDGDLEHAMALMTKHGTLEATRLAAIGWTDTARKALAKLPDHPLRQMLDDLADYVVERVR

As to `C=C(C)CCOP(=O)(O)OP(=O)(O)O` [IPP], the “product chain-length by TLC with [14C]IPP” value was “different ratios of IPP:DMAPP and IPP:FPP”.

The values are drawn from article PMC3855619 (Biochemistry, 2013).
